Results: the NIST ThermoML archive (doi:10.1016/j.tca.2015.09.001)
Numbers after ± are expanded uncertainties.

Experiment: molar heat capacity at constant pressure
Details: 101.33 kPa, Crystal, Small sample (50 mg) DSC

c12c3c4c5c1c1c6c7c2c2c8c3c3c9c4c4c%10c5c5c1c1c6c6c%11c7c2c2c7c8c3c3c8c9c4c4c9c%10c5c5c1c1c6c6c%11c2c2c7c3c3c8c4c4c9c5c1c1c6c2c3c41 [buckminsterfullerene]
Details	molar heat capacity at constant pressure [J/K/mol]
298.15 K	535.8 ± 24
300 K	538.6 ± 24
350 K	648.1 ± 29
400 K	742 ± 33
450 K	830.1 ± 37
500 K	917.4 ± 41
